Experimental data: US8623377B2, “Joint-homing peptides and uses thereof” (University of Maryland, Baltimore, priority 2011, dated 2014)

Key:
LPS-stimulated HUVECs = assay: Internalization of FITC-labeled peptide in LPS-stimulated HUVECs; assay type: cell-based, human
Description: FIG. 2A: Binding of specific phage encoding the peptide NQR or ADK to the vascular endothelium was visualized by immunohistochemical examination of the hind paw section of the rthritic rats using the anti-T7 phage antibody. The binding of phage was tested in the presence or absence of the corresponding synthetic peptide. BV, blood vessel, L, lumen. FIG. 2B: Arthritic rats were injected with specific phage (ADK phage, left; NQR phage, center; or RGD phage, right) in the presence or absence of the corresponding synthetic peptide, and the titer of the phage recovered from the synovial tissue was assessed. *P<0.01. FIG. 2C: CD31-expressing endothelial cells were isolated from arthritic rat joints (upper) or the liver (lower) and stained with DAPI (blue), FITC-labeled peptide NQR (green), or Alexa Fluor 594-labeled anti-rat CD31 antibody (red). Also shown is the staining overlay (merge) of green and red (yellow). The inset is an enlarged view of a single cell; original magnification, 20×. FIG. 2D: LPS-stimulated HUVECs were stained with DAPI and FITC-labeled peptide NQR and observed under a fluorescence microscope, original magnification, 100×.

[1] = test system: hind paw joints of arthritic Lewis rats; assay: Histopathological evaluation of hind paw joints of arthritic rats; assay type: in vivo, Lewis rat; settings: H&E-stained hind paw sections
Description: FIG. 3A: Group of arthritic Lewis rats (n=4 per group) were injected with a peptide (AD, NQR, or RGD) or PBS i.v. on the days indicated by the arrows either at the onset or just after the onset of arthritis. The its were monitored regularly for the disease severity, presented as “arthritic score”. […] The sections were graded for histopathological features associated with arthritis. B, bone; C, cartilage, JS, joint space; SIC, synovium-infiltrating cells.
The synthetic peptide corresponding to the selected phage-encoded peptide was diluted in PBS and injected i.v. into Lewis rats beginning either at the onset or just after the onset of arthritis after Mtb injection. The peptide was injected to rats on alternate days at a dose of 1 or 2 mg/kg body weight. A total of three or four injections were given to each rat. Control animals received an equal volume of PBS. All rats were graded regularly for clinical signs of arthritis (36). The hind paws of these rats were harvested and processed for histopathological examination.
Hind paws of rats were harvested, skinned, and fixed with 10% phosphate buffered formalin (Fisher Scientific) for 3-7 d (1). […] Tissue sections (5 μm) were placed on a glass slide, stained with H&E (Sigma-Aldrich), and assessed for morphological changes and cellular infiltrates.

HUVECs = assay: Endothelial tube (tubule) formation on Matrigel with VEGF; assay type: cell-based, human; settings: VEGF 10 ng/mL, peptide 0-100 μg/mL
Description: FIG. 4A: Draining lymph node leukocytes from arthritic rats were dye-tagged with PKH67 and injected i.v. into arthritic rats. One group of rats was left untreated, and the other groups were treated with ADK or NQR peptide. After 24 hours, the synovium-infiltrating cells (SICs) were harvested from the joints, subjected to cytospin, and analyzed by fluorescence microscopy (left). In parallel, another set of synovium-infiltrating cells were stained with PE-labeled anti-CD3 or anti-CD 11b/c+ antibody and analyzed by flow cytometry (right). FIG. 4B: HUVECs were cultured on Matrigel-coated wells for 24 hours in the presence of VEGF (10 ng/mL) and various concentrations (0-100 μg/mL) of NQR (left), ADK (center), and RGD (right) peptides. The branches of vessel-like tubes were counted. A reprensentative set of results is shown. *P<0.05, compared with the VEGF-alone control.
HUVECs (1×10^4) were cultured in 80 μL/well of growth factor-reduced Matrigel (BD Biosciences) in a 96-well plate in 100 μL/well of F-12K medium (with no supplements). These cells were then treated for 20 h with VEGF (R&D Systems) in the presence or absence of different concentrations of peptides (NQR, ADK, or RGD). Tubule formation was observed under a microscope, quantitated, and photographed.

[2] = test system: HUVECs attachment to vitronectin; assay: Attachment of HUVECs to vitronectin; assay type: cell-based, human; settings: peptide 30-800 μg/mL, 1 h on vitronectin-coated wells
Description: HUVECs were first suspended in F-12K medium containing the indicated concentrations of NQR, AK or RGD peptide and then incubated for 1 h in microtiter wells coated with vitronectin. The number of cells that attached to vitronectin was quantified. The results of three independent experiments are shown. *P<0.05, compared with the baseline control.
The attachment of HUVECs to vitrnectin was quantified as described (37, 38). Microtiter wells were coated overnight at 4° C. with 2 μg/mL of vitronectin (BD Biosciences). These wells were then blocked for 1 h at 37° C. with 10 mg/mL of BSA (Sigma-Aldrich). In parallel, HUVECs (1.5×10^5 cells/mL) suspended in F-12K medium containing 10% FBS were incubated for 15 min at 37° C. with different concentrations (30-800 μg/mL) of NQR, ADK, or RGD peptide. Thereafter, this cell suspension 100 μL/well) was added to the vitronectin-coated wells, followed by incubation at 37° C. for 1 h. After washing, the number of attached cells was determined using crystal violet (Fisher Scientific).

ERK1/2 = assay: VEGF-induced signaling in HUVECs, Western blot p-ERK1/2; assay type: cell-based, human; settings: peptide 10, 50, 100 μg/mL 1 h, then VEGF 10 ng/mL 20 min
Description: FIG. 6A: HUVECs were stimulated with VEGF and treated with the indicated concentrations of peptides. Phosphorylated ERK1/2 and Akt, as well as total ERK1/2 and Akt, were detected by Western blot analysis. FIG. 6B: Thereafter, p-ERK1/2 and p-Akt were quantified by densitometry, normalized to total ERK1/2 (left) and Akt (right), respectively, and compared with cells in serum-free medium. The results of a representative experiment from a set of three independent experiments are shown. *P<0.05, compared with the positive control.
HUVECs were grown in F-12K medium in the presence of endothelial cell growth supplement (ECGS) (BD Biosciences) and 15% FBS. Confluent cells were starved in basal medium (without ECGS and FBS) for 6 h. Then the cells were pretreated for 1 h with different concentrations (10, 50, and 100 μg/mL) of a peptide (NQR, ADK, or RGD) in fresh basal medium, followed by treatment with VEGF (10 ng/mL) for another 20 min. The conditional medium was discarded, and the cells were lysed using a lysis buffer containing protease inhibitors and phosphatase inhibitors. The cell lysate was then centrifuged, and the resulting supernatant was used for analysis of signaling molecules using specific antibodies to human pERK1/2, ERK1/2, pAkt, Akt, and GAPDH (Cell Signaling Technology) by Western blot analysis. The intensity of the bands in the gel was quantified by densitometry. The levels of p-ERK1/2 and p-Akt were normalized to total ERK1/2 and Akt, respectively, and compared with cells in serum-free medium.

CLDNQRPKC (Synthetic peptide homing to joint in an animal) [NQR peptide, joint-homing phage-derived synthetic peptide]
cellular uptake of peptide (LPS-stimulated HUVECs; FITC-labeled peptide, LPS-stimulated HUVECs): transported across the cell membrane into the cytoplasm and the nucleus
time by which most peptide accumulated in the perinuclear area (LPS-stimulated HUVECs; after addition to the cells): ≤ 45 min
joint damage (histopathology) versus PBS-treated arthritic rats [1]: much less damage
effect on endothelial cell tube formation (HUVECs): inhibited tube formation
effect on attachment of HUVECs to vitronectin [2]: Neither peptide had any effect
effect on VEGF-induced pERK (ERK1/2): induced a decrease in pERK
